T1: GDNF (Homo sapiens, UniProt P39905)
T1 construct: purchased PeproTech, Ltd. or R&D Systems, Inc
T1 sequence (P39905 78-211 limits assumed): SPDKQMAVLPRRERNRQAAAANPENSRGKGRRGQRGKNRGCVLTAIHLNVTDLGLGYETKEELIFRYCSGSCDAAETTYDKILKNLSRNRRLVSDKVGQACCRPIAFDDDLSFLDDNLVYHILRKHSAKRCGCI


Experiments:
[1] = target: T1, GDNF; assay: SPR: competition of GDNF binding to heparin-BSA cuvette by heparin and desulfated heparins; conditions: competing out GDNF binding to heparin-BSA cuvette
Procedure: (§1) Specifically desulfated heparins (Takano et al., 1998) were used to assess the involvement of different sulfate groups in the GDNF-heparin interaction by following direct binding to GDNF cuvette, or by competing out GDNF binding to the heparin-BSA cuvette. Dissociation constants were determined from direct binding using increasing GDNF concentrations and by fitting the data to R=(Rmax*C)/(Kd+C) for heparin. For desulfated heparins, the best fit was achieved using equation R=(Rmax1*C)/(Kd1+C)+(Rmax2*C)/(Kd2+C), where Kd1 and Kd2 are apparent dissociation constants derived for two heparin sites of different affinities with maximum equilibrium response Rmax1 and Rmax2, respectively.

[2] = target: T2, GDNF-syndecan-3 complex (UniProt P33671+P39905); assay: Chemical cross-linking of ^125I-GDNF to C6 cells and immunoprecipitation with anti-syndecan-3; format: cell-based, rat; conditions: heparin 1 μg/ml; HB-GAM 150-fold molar excess; added with ^125I-GDNF
T2 construct: the rat glioma C6 cell line, which expresses syndecan-3; endogenous in cells; host or cells: rat glioma C6 cells (syndecan-3); GDNF purchased from PeproTech or R&D Systems and iodinated
Procedure: Glioma C6 cells were plated on 6-well plates and grown to 70% confluency. Cells were incubated with 1 nM ^125I-GDNF for 2 hours in binding buffer (Dulbecco's modified Eagle's medium, 0.2% BSA and 15 mM Hepes, pH 7.2) on ice. Unbound ligand was removed by washing three times with ice-cold PBS. The chemical cross-linker ethyl-dimethyl-aminopropyl-carbodimide (EDAC) supplemented with N-hydroxysuccinimide (NHS) (Sigma) was incubated with cells for 20 min at room temperature in PBS. The reaction was quenched with TBS for 15 min and cells were lysed in lysis buffer (TBS, 1% Triton X-100, 1% NP-40, 2 mM EDTA, 1 mM PMSF and Complete protease inhibitor mixture from Roche Molecular Biochemicals). Cell lysates were immunoprecipitated with anti-syndecan-3 antibodies (Nolo et al., 1995) and resolved on 7.5% SDS-PAGE. Autoradiography was performed with BAS1500 (Fuji). For heparinase III or PI-PLC treatment cells were incubated with 10 mU/ml heparinase III or with 1 U/ml PI-PLC, respectively for one hour at 37° C., 5% CO2 before ^125I-GDNF addition.

[3] = coinfusion into rat striatum; cited from earlier work
[4] = target: T1, GDNF; assay: SPR: direct binding of heparin or desulfated heparins to GDNF cuvette; conditions: apparent Kd from equilibrium response, read-out: Kd1
Procedure: as §1

[5] = target: T1, GDNF; assay: Scintillation proximity assay: tritium labeled heparin binding to and displacement from GDNF; conditions: FIG. 11
Description: The scintillation proximity assay (SPA) technology (Amersham) was used to assay the ability of the low molecular weight molecule (namely low molecular weight heparin from Sigma) to displace tritium labeled heparin from GDNF.
Small beads filled with scintillation liquid are covalently linked with anti-mouse antibodies that can capture mouse anti-FLAG-tag antibodies. In turn, GDNF that we produced by ourselves has a FLAG-tag on its N-terminus. Thus, GDNF is in close proximity to the scintillation beads. The tritium labeled high molecular weight heparin (a kind gift from Ulf Lindahl, Sweden) is administered in the surrounding solution. Labeled heparin binds GDNF, which is sitting on scintillation beads and induces light that is detected. […] This assay can be easily adopted to high-throughput format.
To test the ability of small molecules to displace heparin or heparan sulfates from GDNF they are simply mixed at different concentrations with the labeled heparin and the decrease of the signal is monitored. It does positively correlate with the concentration of the cold heparin. We did it in our study with low molecular weight heparin and got IC50 of approximately 10 nM, which correlates with other binding data (FIG. 11).

T2 sequence (P33671 45-442, one chain of several): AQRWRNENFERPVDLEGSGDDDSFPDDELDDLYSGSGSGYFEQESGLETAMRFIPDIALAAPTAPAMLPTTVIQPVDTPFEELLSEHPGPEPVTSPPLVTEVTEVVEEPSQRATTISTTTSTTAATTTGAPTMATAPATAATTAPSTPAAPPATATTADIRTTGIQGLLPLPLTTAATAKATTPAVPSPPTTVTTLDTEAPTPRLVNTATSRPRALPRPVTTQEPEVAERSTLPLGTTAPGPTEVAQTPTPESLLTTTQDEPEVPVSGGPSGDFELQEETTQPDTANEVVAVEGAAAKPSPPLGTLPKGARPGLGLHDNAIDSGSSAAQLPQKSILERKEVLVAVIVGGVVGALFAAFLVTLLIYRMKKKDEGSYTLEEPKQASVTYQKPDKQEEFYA

Row | Molecule | IC50 [1] [ng/mL] | effect on ^125I-GDNF binding to syndecan-3 on C6 cells [2] | biodistribution of coinfused GDNF, NRTN or ARTN [3] | Kd [4] [nM] | IC50 [5] [nM]
1 | heparin | 0.06 | abolished ^125I-GDNF binding to syndecan-3 almost completely | markedly increased their biodistribution | 9.5 | –
2 | low molecular weight heparin | – | – | – | – | ~10
3 | HB-GAM: ECM molecule, another syndecan-3-specific ligand (protein) GKKEKPEKKVKKSDCGEWQWSVCVPTSGDCGLGTREGTRTGAECKQTMKTQRCKIPCNWKKQFGAECKYQFQAWGECDLNTALKTRTGSLKRALHNADCQKTVTISKPCGKLTKPKPQAESKKKKKEGKKQEKMLD | – | displaced | – | – | –

From patent US8034572B2, “Receptor for GDNF family ligands” (priority 2006, dated 2011)
